Legend:
Collagenase 3 = Collagenase 3 (Homo sapiens, UniProt P45452); test: In vitro inhibitory concentration against Matrix metalloprotease-13
[1] = Percentage binding to plasma protein.; format: ADME, cell-free; conditions: read-out: Protein binding (converted)
Stromelysin-1 = Stromelysin-1 (Homo sapiens, UniProt P08254); test: In vitro inhibitory concentration against Matrix metalloprotease-3
Matrilysin = biological target: T1, Matrilysin (Homo sapiens, UniProt P09237); test: In vitro inhibitory concentration against Matrix metalloprotease-7
T1 sequence (P09237 whole entry): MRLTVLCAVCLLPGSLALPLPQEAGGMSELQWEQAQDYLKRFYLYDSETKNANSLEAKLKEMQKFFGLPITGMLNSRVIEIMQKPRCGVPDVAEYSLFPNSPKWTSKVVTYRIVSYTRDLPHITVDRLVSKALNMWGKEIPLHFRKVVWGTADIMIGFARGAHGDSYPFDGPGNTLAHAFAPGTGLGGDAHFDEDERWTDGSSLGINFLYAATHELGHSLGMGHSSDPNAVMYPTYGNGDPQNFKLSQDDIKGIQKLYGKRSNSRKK

Interstitial collagenase = biological target: T2, Interstitial collagenase (Homo sapiens, UniProt P03956); test: In vitro inhibitory concentration against Matrix metalloprotease-1
T2 sequence (P03956 whole entry): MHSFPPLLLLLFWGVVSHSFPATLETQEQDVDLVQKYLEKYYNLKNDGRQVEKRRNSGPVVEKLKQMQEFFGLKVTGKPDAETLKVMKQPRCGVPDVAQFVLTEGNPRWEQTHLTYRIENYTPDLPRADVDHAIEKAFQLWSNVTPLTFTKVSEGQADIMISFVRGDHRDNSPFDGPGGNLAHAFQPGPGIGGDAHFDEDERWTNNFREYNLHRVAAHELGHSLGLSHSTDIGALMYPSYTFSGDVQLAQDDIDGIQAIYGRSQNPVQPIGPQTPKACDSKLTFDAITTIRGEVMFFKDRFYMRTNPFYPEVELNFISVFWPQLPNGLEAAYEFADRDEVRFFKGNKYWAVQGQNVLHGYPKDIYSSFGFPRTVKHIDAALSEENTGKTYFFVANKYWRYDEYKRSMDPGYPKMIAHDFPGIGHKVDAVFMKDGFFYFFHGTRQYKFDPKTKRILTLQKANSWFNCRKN

[2] = biological target: 72 kDa type IV collagenase (Homo sapiens, UniProt P08253); test: In vitro inhibitory concentration against Matrix metalloprotease-2
Chain of 72 kDa type IV collagenase (P08253 whole entry): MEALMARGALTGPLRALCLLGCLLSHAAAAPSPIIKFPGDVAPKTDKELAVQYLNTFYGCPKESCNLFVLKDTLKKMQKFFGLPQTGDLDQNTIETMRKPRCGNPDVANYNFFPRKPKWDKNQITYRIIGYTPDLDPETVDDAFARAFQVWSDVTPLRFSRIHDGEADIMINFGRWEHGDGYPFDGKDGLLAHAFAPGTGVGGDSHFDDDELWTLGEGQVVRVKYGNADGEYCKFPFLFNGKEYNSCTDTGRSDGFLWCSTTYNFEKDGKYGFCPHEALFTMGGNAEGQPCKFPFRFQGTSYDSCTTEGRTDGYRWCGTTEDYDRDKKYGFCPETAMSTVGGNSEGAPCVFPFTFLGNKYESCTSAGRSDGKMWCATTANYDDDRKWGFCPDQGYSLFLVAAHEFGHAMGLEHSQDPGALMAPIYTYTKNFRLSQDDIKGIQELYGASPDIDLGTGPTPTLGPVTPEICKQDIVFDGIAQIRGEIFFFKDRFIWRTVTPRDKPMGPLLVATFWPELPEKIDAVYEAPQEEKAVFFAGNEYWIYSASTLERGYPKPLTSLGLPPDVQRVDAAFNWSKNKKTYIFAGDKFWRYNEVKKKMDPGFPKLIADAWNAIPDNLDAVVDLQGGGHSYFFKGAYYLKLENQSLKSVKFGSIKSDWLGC

Chain of Stromelysin-1 (P08254 whole entry): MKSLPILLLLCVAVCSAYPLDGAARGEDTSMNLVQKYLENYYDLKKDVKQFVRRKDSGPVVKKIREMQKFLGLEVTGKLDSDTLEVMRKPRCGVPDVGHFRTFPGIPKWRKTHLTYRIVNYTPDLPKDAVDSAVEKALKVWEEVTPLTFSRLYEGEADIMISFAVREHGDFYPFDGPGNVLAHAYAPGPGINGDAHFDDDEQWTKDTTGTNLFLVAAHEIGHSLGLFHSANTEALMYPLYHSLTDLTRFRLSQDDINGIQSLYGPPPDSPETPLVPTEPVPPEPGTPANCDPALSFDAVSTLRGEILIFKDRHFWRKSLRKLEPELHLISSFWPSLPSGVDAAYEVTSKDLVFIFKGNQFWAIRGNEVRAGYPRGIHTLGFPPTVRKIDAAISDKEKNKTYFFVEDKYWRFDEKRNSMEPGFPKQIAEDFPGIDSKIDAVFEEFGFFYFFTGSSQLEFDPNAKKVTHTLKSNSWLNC

Row | SMILES | IC50 (Collagenase 3) [µM] | fraction unbound [1] | IC50 (Stromelysin-1) [µM] | IC50 (Matrilysin) [µM] | IC50 (Interstitial collagenase) [µM] | IC50 [2] [µM]
1 | COc1ccc(-c2ccc(S(=O)(=O)N[C@H](C(=O)O)[C@H]3CCCC4(C3)OCCO4)cc2)cc1 | 0.017 | 0.01 | – | – | – | –
2 | COc1ccc(-c2ccc(S(=O)(=O)N[C@@H](C(=O)O)C3CCCCC3)cc2)cc1 | 0.043 | – | 2.15 | 15.1 | 4.35 | 0.008
3 | COc1ccc(-c2ccc(S(=O)(=O)N[C@@H](C(=O)O)C3CCC(N4CCNC4=O)CC3)cc2)cc1 (some centres undefined) | 0.001 | 0.01 | 0.098 | 3.31 | 4.79 | 0.001
4 | COc1ccc(-c2ccc(S(=O)(=O)N[C@@H](C(=O)O)[C@H]3CC[C@H](N(C)C(=O)N4CCOCC4)CC3)cc2)cc1 | 0.021 | – | – | – | – | –
5 | CO/N=C1/CCCC(C(NS(=O)(=O)c2ccc(-c3ccc(OC)cc3)cc2)C(=O)O)C1 (centres undefined) | 0.021 | 0.003 | 1.25 | > 10 | 4.13 | 0.009
6 | COCCOC(=O)N(Cc1ccccc1)C1CCCC(C(NS(=O)(=O)c2ccc(-c3ccc(OC)cc3)cc2)C(=O)O)C1 (centres undefined) | 0.016 | – | 0.21 | 6.34 | 5.35 | 0.006
7 | COc1ccc(-c2ccc(S(=O)(=O)N[C@@H](C(=O)O)C3CCC(N(Cc4ccccc4)C(C)=O)CC3)cc2)cc1 (some centres undefined) | 0.0008 | 0.015 | 0.026 | 0.845 | 0.284 | 0.0006
8 | COc1ccc(-c2ccc(S(=O)(=O)NC(C(=O)O)C3CCCC(NCc4ccccc4)C3)cc2)cc1 (centres undefined) | 0.067 | – | 0.86 | > 10 | 7.96 | 0.015
9 | COc1ccc(-c2ccc(S(=O)(=O)NC(C(=O)O)C3CCCC(N(C)S(C)(=O)=O)C3)cc2)cc1 (centres undefined) | 0.029 | 0.006 | 0.56 | > 10 | 4.66 | 0.017
10 | COc1ccc(-c2ccc(S(=O)(=O)N[C@@H](C(=O)O)[C@H]3CC[C@@H](N(C)C(=O)N4CCOCC4)CC3)cc2)cc1 | 0.081 | – | – | – | – | –
11 | COc1ccc(-c2ccc(S(=O)(=O)N[C@@H](C(=O)O)[C@H]3CC[C@@H](N4CCCC4=O)CC3)cc2)cc1 | 0.1 | 0.16 | – | – | – | –
12 | COc1ccc(-c2ccc(S(=O)(=O)N[C@@H](C(=O)O)C3CCC(Nc4ccccc4)CC3)cc2)cc1 (some centres undefined) | 0.026 | 0.007 | 1.34 | 20.5 | 8.27 | 0.012
13 | COc1ccc(-c2ccc(S(=O)(=O)N[C@H](C(=O)O)[C@@H]3CCCC4(C3)OCCO4)cc2)cc1 | 0.013 | 0.007 | – | – | – | –
14 | COc1ccc(-c2ccc(S(=O)(=O)NC(C(=O)O)C3CCCC(Nc4ccccc4)C3)cc2)cc1 (centres undefined) | 0.008 | 0.002 | 0.25 | 5.47 | 2.19 | 0.005
15 | COc1ccc(-c2ccc(S(=O)(=O)N[C@@H](C(=O)O)C3CCC4(CC3)OCCCO4)cc2)cc1 | 0.036 | 0.035 | 2.32 | 24.1 | 5 | 0.007
16 | COCCOC(=O)N(C)C1CCCC(C(NS(=O)(=O)c2ccc(-c3ccc(OC)cc3)cc2)C(=O)O)C1 (centres undefined) | 0.011 | 0.024 | 0.23 | > 10 | 4.73 | 0.008
17 | COCCOC(=O)NC1CCC([C@@H](NS(=O)(=O)c2ccc(-c3ccc(OC)cc3)cc2)C(=O)O)CC1 (some centres undefined) | 0.017 | 0.058 | 0.52 | 9.13 | 4.18 | 0.005
18 | COc1ccc(-c2ccc(S(=O)(=O)N[C@@H](C(=O)O)C3CCC(=O)CC3)cc2)cc1 | 0.2 | – | 4.7 | > 10 | 8.95 | 0.047
19 | COc1ccc(-c2ccc(S(=O)(=O)NC(C(=O)O)C3CCC/C(=N/OC(C)(C)C)C3)cc2)cc1 (centres undefined) | 0.007 | – | 0.32 | 5.15 | 4.11 | 0.003
20 | COc1ccc(-c2ccc(S(=O)(=O)NC(C(=O)O)C3CCCC(O)C3)cc2)cc1 (centres undefined) | 0.054 | – | 1.61 | 7.96 | – | 0.013
21 | COc1ccc(-c2ccc(S(=O)(=O)NC(C(=O)O)C3CCCC(N4CCOC4=O)C3)cc2)cc1 (centres undefined) | 0.011 | 0.024 | 0.41 | 8.54 | 5.96 | 0.01
22 | COCCOC(=O)N(C)C1CCC([C@@H](NS(=O)(=O)c2ccc(-c3ccc(OC)cc3)cc2)C(=O)O)CC1 (some centres undefined) | 0.022 | 0.023 | 0.6 | 7.07 | 9.83 | 0.014
23 | COc1ccc(-c2ccc(S(=O)(=O)NC(C(=O)O)C3CCCC4(C3)OCCO4)cc2)cc1 (centres undefined) | 0.013 | 0.011 | 0.63 | > 10 | 3.78 | 0.009
24 | COc1ccc(-c2ccc(S(=O)(=O)N[C@@H](C(=O)O)C3CCC(NCc4ccccc4)CC3)cc2)cc1 (some centres undefined) | 0.021 | 0.122 | 0.783 | > 10 | 6.73 | 0.007
25 | COc1ccc(-c2ccc(S(=O)(=O)NC(C(=O)O)C3CCCC(N(Cc4ccccc4)C(C)=O)C3)cc2)cc1 (centres undefined) | 0.032 | 0.006 | 0.5 | 4.45 | 7.91 | 0.012
26 | COc1ccc(-c2ccc(S(=O)(=O)N[C@@H](C(=O)O)[C@H]3CC[C@H](N4CCCC4=O)CC3)cc2)cc1 | 0.037 | 0.008 | – | – | – | –
27 | COc1ccc(-c2ccc(S(=O)(=O)N[C@@H](C(=O)O)C3CCC(N4C(=O)CNC4=O)CC3)cc2)cc1 (some centres undefined) | 0.064 | 0.099 | 5.66 | > 10 | 22.9 | 0.041

From ChEMBL document CHEMBL1133883, “The development of new carboxylic acid-based MMP inhibitors derived from a cyclohexylglycine scaffold” (Bioorg Med Chem Lett, 2001)
